Experiments:
[1] = tested on: ITD-Ba/F3; details: Mus musculus, BaF3, 48 h, read-out: Inhibition of Flt-3 dependent Proliferation (ED50) ITD-mutant
Description: (§1) Inhibition of Proliferation in Flt-3 Dependent Ba/F3 Cells:
(§2) The compound's potential to penetrate cell membranes and exert antiproliferative effects is determined in Ba/F3 cells dependent on mutated [ITD or D835Y; Gilliland and Griffin, Blood, Vol. 100, No. 5, 153242 (2002)] Flt-3 receptor kinases.
(§3) A modified protocol of the YO-PRO-1 assay in a 96-well format is based on the use of the wild-type IL-3-dependent hematopoietic cell line Ba/F3 (DSMZ, Braunschweig, Germany) and the mutant sub-lines ITD-Ba/F3 or D835Y-Ba/F3 [Weisberg et al., Cancer Cell 1 (5):433-43 (2000)] expressing constitutively activating Flt-3 kinases.
(§4) ITD-FLT3- or D835Y-FLT3-Ba/F3 cells are diluted in fresh medium to a final concentration of 3×10^5 cells per ml and 50 μl aliquots seeded into 96-well plates (1.5×10^4 cells per well). Subsequently, 50 μl 2× compound solutions were added and cells incubated for 48 h. The anti-proliferative and apoptotic activity of a compound is initially tested in triplicates at 10 μM, 1 μM and 0.1 μM concentration on both cell lines. Cells treated with DMSO alone (added to a final concentration of 0.1%) always serves as a control. In addition, a plate blank value is routinely determined in a well containing only 100 μl of medium and no cells.
(§5) To further profile a compound an ED50 determination is done starting at 10 μM or 3 μM of the compound of interest. From those concentrations, stepwise nine dilutions are prepared reaching the final concentrations of 2 μM and 0.5 μM, respectively.
(§6) Activity of inhibitors is assessed by the YO-PRO-1 assay as previously described in [Idziorek et al., J. Immunol. […] Briefly, after the treatment period of 48 h, a 25 μl aliquot of a solution containing 100 mM sodium citrate, pH 4.0, 134 mM sodium chloride and 12.5 μM YO-PRO-1 dye (YO-PRO-1 iodide, #Y3603, Molecular Probes) is directly added to the 100 μl medium in the wells of the 96-well plate. That results in a final dye concentration of 2.5 μM, the plate is then incubated for 10 min at ambient temperature in the dark. The uptake of the YO-PRO-1 dye into cells is assessed by a first measurement using a Cytofluor II 96-well plate reader (PerSeptive Biosystems) with the following settings: Excitation (nm) 485120 and Emission (nm) 530/25, Gain 75. After this first reading, 25 μl of lysis buffer consisting of 20 mM sodium citrate, pH 4.0, 26.8 mM sodium chloride, 0.4% NP40, 20 mM EDTA and 20 mM is added to each well. Cell lysis is completed within 60 min at room temperature and total amount of YO-PRO-1 bound to DNA is determined by a second measurement using the Cytofluor II 96-well reader with the identical setting as described above.

[2] = tested on: D835Y-Ba/F3; details: Mus musculus, BaF3, 48 h, read-out: Inhibition of Flt-3 dependent Proliferation (ED50) D835-mutant
Description: as §1, §2, §3, §4, §5, §6

[3] = biological target: T1, RET (Homo sapiens, UniProt P07949); assay: RET kinase inhibition (33P incorporation into poly(Glu,Tyr), GST-wtRET or GST-RET-Men2B); format: biochemical
T1 construct: expresses the amino acid region 658-1072 (Swiss prot No. Q9BTB0); made in house; host or cells: Sf9 insect cells (baculovirus, vector pFB-GSTX3)
T1 sequence (P07949 658-1072 isoform P07949-2): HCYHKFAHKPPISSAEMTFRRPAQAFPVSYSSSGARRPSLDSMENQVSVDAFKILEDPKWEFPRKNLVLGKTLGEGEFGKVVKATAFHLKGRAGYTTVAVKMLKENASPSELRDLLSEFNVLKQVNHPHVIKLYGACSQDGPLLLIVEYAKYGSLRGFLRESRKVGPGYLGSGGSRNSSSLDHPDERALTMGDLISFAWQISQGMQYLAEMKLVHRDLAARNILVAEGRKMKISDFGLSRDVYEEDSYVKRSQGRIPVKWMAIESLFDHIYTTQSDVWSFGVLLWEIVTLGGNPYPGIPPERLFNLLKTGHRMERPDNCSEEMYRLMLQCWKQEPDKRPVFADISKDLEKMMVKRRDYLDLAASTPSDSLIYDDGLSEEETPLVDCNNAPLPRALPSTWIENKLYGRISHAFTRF
Description: RET kinase inhibition is determined as follows:
The coding sequence for the cytoplasmic domain of wtRET is amplified by PCR from a cDNA library using specific primers. RET-Men2B is generated through site-directed mutagenesis resulting in the M918T mutation. The amplified DNA fragments and the pFB-GSTX3 vector are made compatible for ligation by digestion with SalI and KpnI. Ligation of these DNA fragments results in the baculovirus donor plasmids […] and pFB-GX3-RET-Men2B, respectively.
Production of virus: The baculovirus donor plasmids containing the kinase domains are transfected into the DH10Bac cell line (GIBCO) and the transfected cells are plated on selective agar plates. Colonies without insertion of the fusion sequence into the viral genome (carried by the bacteria) are blue. Single, white colonies are picked and viral DNA (bacmid) is isolated from the bacteria by standard plasmid purification procedures. Sf9 cells or Sf21 cells (American Type Culture Collection) are then transfected in 25 cm^2 flasks with the viral DNA using Cellfectin reagent.
Protein expression in Sf9 cells: Virus-containing media is collected from the transfected cell culture and used for infection to increase its titer. Virus-containing media obtained after two rounds of infection is used for large-scale protein expression. For large-scale protein expression 100 cm^2 round tissue culture plates are seeded with 5×10^7 cells/plate and infected with 1 mL of virus-containing media (approximately 5 MOIs). After 3 days, the cells are scraped off the plate and centrifuged at 500 rpm for 5 minutes. Cell pellets from 10-20, 100 cm^2 plates are re-suspended in 50 mL of ice-cold lysis buffer (25 mM Tris-HCl, pH 7.5, 2 mM EDTA, 1% NP-40, 1 mM DTT, 1 mM PMSF). The cells are stirred on ice for 15 minutes and then centrifuged at 5,000 rpms for 20 minutes.
Purification of GST-tagged proteins: The centrifuged cell lysate is loaded onto a 2 mL glutathione-sepharose column (Pharmacia) and washed 3× with 10 mL of 25 mM Tris-HCl, pH 7.5, 2 mM EDTA, 1 mM DTT, 200 mM NaCl. The GST-tagged proteins are then eluted by 10 applications (1 mL each) of 25 mM Tris-HCl, pH 7.5, 10 mM reduced-glutathione, 100 mM NaCl, 1 mM DTT, 10% glycerol and stored at −70° C.
Measure of enzyme activity: Tyrosine protein kinase assays with either purified GST-wtRET or GST-RET-Men2B protein are carried out in a final volume of 30 μL containing 15 ng of either GST-RET or GST-RET-Men2B protein, 20 mM Tris-HCl, pH 7.5, 1 mM MnCl2, 10 mM MgCl2, 1 mM DTT, 3 μg/mL poly(Glu, Tyr) 4:1, 1% DMSO, 2.0 μM ATP (γ-[^33P]-ATP 0.1 μCi). The activity is assayed in the presence or absence of inhibitors, by measuring the incorporation of ^33P from [γ^33P] ATP into poly(Glu, Tyr) 4:1. […] Subsequently, 40 μL of the reaction mixture are transferred onto Immobilon-PVDF membrane (Millipore) previously soaked for 5 minutes with methanol, rinsed with water, then soaked for 5 minutes with 0.5% H3PO4 and mounted on vacuum manifold with disconnected vacuum source. After spotting all samples, vacuum is connected and each well rinsed with 200 μL 0.5% H3PO4. Membranes are removed and washed 4× on a shaker with 1.0% H3PO4, once with ethanol. Membranes are counted after drying at ambient temperature, mounting in Packard TopCount 96-well frame, and addition of 10 μl/well of Microscint™ (Packard). […] One unit of protein kinase activity is defined as 1 nmole of ^33P transferred from [γ^33P] ATP to the substrate protein/minute/mg of protein at 37° C.

EC50 [1]: < 200 pM | EC50 [2]: 500 pM | IC50 [3]: 400000 pM
SMILES: CC(C)N1CCN(Cc2ccc(NC(=O)Nc3ccc(Oc4ccnc(N)n4)cc3)cc2C(F)(F)F)CC1 [Example 45, N-[4-(2-Amino-pyrimidin-4-yloxy)-phenyl]-N′-[4-(4-isopropylpiperazin-1-ylmethyl)-3-trifluoromethyl-phenyl]-urea]

Source: patent publication US20080312192A1, “Diaryl Urea Derivatives in the Treatment of Protein Kinase Dependent Diseases” (priority 2003, published 2008)
